Experiments:
NS3TP1 = NS3TP1 expression in liver tissue of CCl4 liver fibrosis mice; assay type: in vivo, C57BL/6 wild-type mice; conditions: CCl4-induced mice, different doses by gavage, vs untreated group, FIG. 5
Method: Long-term intraperitoneal injection of carbon tetrachloride (CCl4) induced reversible liver fibrosis, which was often used to screen and evaluate anti-hepatic fibrosis drugs. C57BL/6 wild-type mice were randomly divided into control group, carbon tetrachloride group and treatment group. The treatments were as follows:
Mice in the carbon tetrachloride group: The animals were intraperitoneally injected with carbon tetrachloride in a total amount of 0.5 μL/g, diluted with corn oil to 10 μL/g, 3 times/week. […]

NAFLD induced by HFD = assay: Mouse NAFLD model induced by HFD, H&E staining; assay type: in vivo, C57BL/6J male mice; conditions: HFD diet mice, 10, 50, 150 mg/kg by gavage bid, 8 weeks, vs untreated group, FIG. 9
Method: (§1) • (1) C57BL/6J male mice aged 6 to 8 weeks were selected and randomly divided into normal diet group (n=10) and HFD or CHOL group; the weight changes of the mice were recorded during the modeling period, and the modeling was conducted for 8 weeks (CHOL) or 10 weeks (HFD), then the mice in the HFD or CHOL group were randomly divided into groups according to their body weights, plus the negative control group, a total of 5 groups:
(§2) (2) Mice in the negative control group (n=10): The animals were fed with normal diet, and 200 μL of drinking water was administered by gavage, bid.
(§3) Mice in HFD or CHOL group (n=10): The animals were fed with HFD or CHOL diet, and 200 μL of normal saline was administered by gavage at the same time, bid. (Note: HFD (60% high fat) feed (Whitby Technology Development (Beijing) Co., Ltd.) (D12492), CHOL (40% high fat +1.25% cholesterol) feed (Whitby Technology Development (Beijing) Co., Ltd.) (D12108C)) (3) Mice in Compound 6-low dose group (n=10): The animals were fed with HFD or CHOL diet, and administrated simultaneously with Compound 6 at a dose of 10 mg/kg by gavage, bid.
(§4) (4) Mice in Compound 6-middle dose group (n=10): The animals were fed with HFD or CHOL diet, and administrated simultaneously with Compound 6 at a dose of 50 mg/kg by gavage, bid. […]

NAFLD induced by CHOL = assay: Mouse NAFLD model induced by CHOL, H&E staining; assay type: in vivo, C57BL/6J male mice; conditions: CHOL diet mice, 10, 50, 150 mg/kg by gavage bid, 8 weeks, vs untreated group, FIG. 10
Method: as §1, §2, §3, §4

`COC(=O)C[C@H](N)C(=O)O` [Compound 6] was tested, and the “expression of NS3TP1 in the liver tissue of mice” value (NS3TP1) was “gradually increased in a dose-dependent manner”, the “lipid droplet aggregation in the liver tissue of mice (H&E)” value (NAFLD induced by HFD) was “reduced in a dose-dependent manner” and the “lipid droplet aggregation in the liver tissue of mice (H&E)” value (NAFLD induced by CHOL) was “reduced in a dose-dependent manner”.
